Results as given in the NIST ThermoML archive (doi:10.1021/je7003758).
± gives the expanded uncertainty stated by the source.

Experiment: xn = mol fraction of the nth substance listed
Details: 298.15 K, Liquid

Compound: CCCCCCCCCl [1-chlorooctane] + CN1CCCC1=O
- mass density (100 kPa, x2 = 0.0969): 878 ± 1.2 kg/m3
- mass density (100 kPa, x2 = 0.2014): 888.8 ± 1.1 kg/m3
- mass density (100 kPa, x2 = 0.3097): 901.2 ± 0.9 kg/m3
- mass density (100 kPa, x2 = 0.4076): 913.6 ± 0.8 kg/m3
- mass density (100 kPa, x2 = 0.5021): 926.9 ± 0.7 kg/m3
- mass density (100 kPa, x2 = 0.6022): 942.5 ± 0.6 kg/m3
- mass density (100 kPa, x2 = 0.7005): 959.8 ± 0.5 kg/m3
- mass density (100 kPa, x2 = 0.8007): 979.6 ± 0.5 kg/m3
- mass density (100 kPa, x2 = 0.9008): 1002.2 ± 0.4 kg/m3
- mass density (500 kPa, x2 = 0.0969): 878.3 ± 1.2 kg/m3
- mass density (500 kPa, x2 = 0.2014): 889.1 ± 1.1 kg/m3
- mass density (500 kPa, x2 = 0.3097): 901.5 ± 1 kg/m3
- mass density (500 kPa, x2 = 0.4076): 913.9 ± 0.9 kg/m3
- mass density (500 kPa, x2 = 0.5021): 927.2 ± 0.8 kg/m3
- mass density (500 kPa, x2 = 0.6022): 942.8 ± 0.6 kg/m3
- mass density (500 kPa, x2 = 0.7005): 960 ± 0.5 kg/m3
- mass density (500 kPa, x2 = 0.8007): 979.8 ± 0.5 kg/m3
- mass density (500 kPa, x2 = 0.9008): 1002.4 ± 0.4 kg/m3
- mass density (1000 kPa, x2 = 0.0969): 878.6 ± 1.2 kg/m3
- mass density (1000 kPa, x2 = 0.2014): 889.4 ± 1.1 kg/m3
- mass density (1000 kPa, x2 = 0.3097): 901.9 ± 1 kg/m3
- mass density (1000 kPa, x2 = 0.4076): 914.3 ± 0.9 kg/m3
- mass density (1000 kPa, x2 = 0.5021): 927.5 ± 0.8 kg/m3
- mass density (1000 kPa, x2 = 0.6022): 943.1 ± 0.7 kg/m3
- mass density (1000 kPa, x2 = 0.7005): 960.3 ± 0.6 kg/m3
- mass density (1000 kPa, x2 = 0.8007): 980.1 ± 0.5 kg/m3
- mass density (1000 kPa, x2 = 0.9008): 1002.7 ± 0.4 kg/m3
- mass density (1500 kPa, x2 = 0.0969): 879 ± 1.2 kg/m3
- mass density (1500 kPa, x2 = 0.2014): 889.8 ± 1.1 kg/m3
- mass density (1500 kPa, x2 = 0.3097): 902.3 ± 1 kg/m3
- mass density (1500 kPa, x2 = 0.4076): 914.6 ± 0.9 kg/m3
- mass density (1500 kPa, x2 = 0.5021): 927.8 ± 0.8 kg/m3
- mass density (1500 kPa, x2 = 0.6022): 943.4 ± 0.7 kg/m3
- mass density (1500 kPa, x2 = 0.7005): 960.6 ± 0.6 kg/m3
- mass density (1500 kPa, x2 = 0.8007): 980.4 ± 0.5 kg/m3
- mass density (1500 kPa, x2 = 0.9008): 1003 ± 0.4 kg/m3
- mass density (2000 kPa, x2 = 0.0969): 879.4 ± 1.2 kg/m3
- mass density (2000 kPa, x2 = 0.2014): 890.2 ± 1.1 kg/m3
- mass density (2000 kPa, x2 = 0.3097): 902.5 ± 1 kg/m3
- mass density (2000 kPa, x2 = 0.4076): 914.9 ± 0.9 kg/m3
- mass density (2000 kPa, x2 = 0.5021): 928.2 ± 0.8 kg/m3
- mass density (2000 kPa, x2 = 0.6022): 943.7 ± 0.7 kg/m3
- mass density (2000 kPa, x2 = 0.7005): 960.9 ± 0.6 kg/m3
- mass density (2000 kPa, x2 = 0.8007): 980.7 ± 0.5 kg/m3
- mass density (2000 kPa, x2 = 0.9008): 1003.2 ± 0.4 kg/m3
- mass density (2500 kPa, x2 = 0.0969): 879.7 ± 1.3 kg/m3
- mass density (2500 kPa, x2 = 0.2014): 890.6 ± 1.1 kg/m3
- mass density (2500 kPa, x2 = 0.3097): 902.9 ± 1 kg/m3
- mass density (2500 kPa, x2 = 0.4076): 915.2 ± 0.9 kg/m3
- mass density (2500 kPa, x2 = 0.5021): 928.5 ± 0.8 kg/m3
- mass density (2500 kPa, x2 = 0.6022): 944.1 ± 0.7 kg/m3
- mass density (2500 kPa, x2 = 0.7005): 961.2 ± 0.6 kg/m3
- mass density (2500 kPa, x2 = 0.8007): 981 ± 0.5 kg/m3
- mass density (2500 kPa, x2 = 0.9008): 1003.5 ± 0.4 kg/m3
- mass density (2900 kPa, x2 = 0.6022): 944.4 ± 0.7 kg/m3
- mass density (3000 kPa, x2 = 0.0969): 880.2 ± 1.3 kg/m3
- mass density (3000 kPa, x2 = 0.2014): 890.9 ± 1.1 kg/m3
- mass density (3000 kPa, x2 = 0.3097): 903.3 ± 1 kg/m3
- mass density (3000 kPa, x2 = 0.4076): 915.6 ± 0.9 kg/m3
- mass density (3000 kPa, x2 = 0.5021): 928.8 ± 0.8 kg/m3
- mass density (3000 kPa, x2 = 0.7005): 961.6 ± 0.6 kg/m3
- mass density (3000 kPa, x2 = 0.8007): 981.3 ± 0.5 kg/m3
- mass density (3000 kPa, x2 = 0.9008): 1003.8 ± 0.4 kg/m3
- mass density (3400 kPa, x2 = 0.0969): 880.5 ± 1.3 kg/m3
- mass density (3500 kPa, x2 = 0.2014): 891.3 ± 1.2 kg/m3
- mass density (3500 kPa, x2 = 0.3097): 903.7 ± 1 kg/m3
- mass density (3500 kPa, x2 = 0.4076): 916 ± 0.9 kg/m3
- mass density (3500 kPa, x2 = 0.5021): 929.1 ± 0.8 kg/m3
- mass density (3500 kPa, x2 = 0.6022): 944.7 ± 0.7 kg/m3
- mass density (3500 kPa, x2 = 0.7005): 961.8 ± 0.6 kg/m3
- mass density (3500 kPa, x2 = 0.8007): 981.6 ± 0.5 kg/m3
- mass density (3500 kPa, x2 = 0.9008): 1004.1 ± 0.4 kg/m3
- mass density (4000 kPa, x2 = 0.0969): 880.8 ± 1.3 kg/m3
- mass density (4000 kPa, x2 = 0.2014): 891.6 ± 1.2 kg/m3
- mass density (4000 kPa, x2 = 0.3097): 904 ± 1.1 kg/m3
- mass density (4000 kPa, x2 = 0.4076): 916.3 ± 0.9 kg/m3
- mass density (4000 kPa, x2 = 0.5021): 929.5 ± 0.8 kg/m3
- mass density (4000 kPa, x2 = 0.6022): 945 ± 0.7 kg/m3
- mass density (4000 kPa, x2 = 0.7005): 962.2 ± 0.6 kg/m3
- mass density (4000 kPa, x2 = 0.8007): 981.9 ± 0.5 kg/m3
- mass density (4000 kPa, x2 = 0.9008): 1004.4 ± 0.4 kg/m3
- mass density (4400 kPa, x2 = 0.4076): 916.6 ± 0.9 kg/m3
- mass density (4500 kPa, x2 = 0.0969): 881.2 ± 1.3 kg/m3
- mass density (4500 kPa, x2 = 0.2014): 892 ± 1.2 kg/m3
- mass density (4500 kPa, x2 = 0.3097): 904.4 ± 1.1 kg/m3
- mass density (4500 kPa, x2 = 0.5021): 929.8 ± 0.8 kg/m3
- mass density (4500 kPa, x2 = 0.6022): 945.3 ± 0.7 kg/m3
- mass density (4500 kPa, x2 = 0.7005): 962.4 ± 0.6 kg/m3
- mass density (4500 kPa, x2 = 0.8007): 982.2 ± 0.5 kg/m3
- mass density (4500 kPa, x2 = 0.9008): 1004.6 ± 0.4 kg/m3
- mass density (5000 kPa, x2 = 0.0969): 881.6 ± 1.3 kg/m3
- mass density (5000 kPa, x2 = 0.2014): 892.3 ± 1.2 kg/m3
